Source: article PMC9569420 (Communications Biology, 2022)
Values joined by “and” are separate entries in the source; they are usually repeats but may differ in a detail not shown here. Identical values can stand only once.

Experiments:
[1] = target: T1, AKT3 (Homo sapiens, UniProt Q9Y243); assay: biochemical
T1 construct: purchased Reaction Biology Corporation

[2] = target: T2, CK1g1 (Homo sapiens, UniProt Q9HCP0); assay: HotSpot kinase assay; type: biochemical; details: read-out: % Enzyme Activity (relative to DMSO controls)
T2 construct: purchased Reaction Biology Corporation

[3] = target: T3, GRK2 (Homo sapiens, UniProt P25098); assay: biochemical; details: read-out: % Enzyme Activity (relative to DMSO controls)
T3 construct: purchased Reaction Biology Corporation

[4] = system: HSV-2(G); assay: nuclear transport of VP-16 (immunoblot of nuclear extracts); type: cell-based; details: HaCat and primary vaginal cells, 1 h; CIMSS 10 μM, antibody 2 μg/ml
Protocol: (§1) To quantify viral entry, cells were synchronously infected by allowing virus to bind to cells at 4°C for 4 h, washed, and then transferred to 37 °C. CIMSS or control DMSO was added at the time of temperature shift. At indicated times post-temperature shift, the cells were treated with a low pH buffer to inactivate virus that had not penetrated, washed, overlaid with medium containing methyl cellulose and viral plaques were counted at 48 h. Entry was also assessed by immunoblotting nuclear extracts for VP16. […] Nuclear extracts were prepared after 1 h and analyzed by western blot with antibodies targeting VP16, histone H1 and golgin-97[5]. The non-nuclear fraction was also probed for golgin-97 as a positive control. […] After 1 or 4 h of incubation, the cells were fixed. Plasma membranes were stained using Image -IT^TM LIVE Plasma Membrane kit and nuclei were stained with DAPI (Thermo Fisher Scientific, Cat 134406). The percentage of GFP + nuclei was determined by counting ~200 cells over 3–4 fields. Images were obtained with Leica SP8 microscope (objective 63 × 1.4); xz images were captured with optical slice 0.6 µm, 25–30 slices per image.

[5] = target: T4, TSSK2 (Homo sapiens, UniProt Q96PF2); assay: HotSpot kinase assay; type: biochemical; details: read-out: % Enzyme Activity (relative to DMSO controls)
T4 construct: purchased Reaction Biology Corporation

[6] = target: T5, TXK (Homo sapiens, UniProt P42681); assay: HotSpot kinase assay; type: biochemical; details: read-out: % Enzyme Activity (relative to DMSO controls)
T5 construct: purchased Reaction Biology Corporation

[7] = target: T6, MKK4 (Homo sapiens, UniProt P45985); assay: HotSpot kinase assay; type: biochemical; details: read-out: % Enzyme Activity (relative to DMSO controls)
T6 construct: purchased Reaction Biology Corporation

[8] = system: MDCK-MDR1 cell; details: 5 µM
[9] = target: T7, EIF2AK4 (Homo sapiens, UniProt Q9P2K8); assay: HotSpot kinase assay; type: biochemical; details: read-out: % Enzyme Activity (relative to DMSO controls)
T7 construct: purchased Reaction Biology Corporation

[10] = target: T8, ZIPK/DAPK3 (Homo sapiens, UniProt O43293); assay: HotSpot kinase assay; type: biochemical; details: read-out: % Enzyme Activity (relative to DMSO controls)
T8 construct: purchased Reaction Biology Corporation

[11] = target: T9, ABL2/ARG (Homo sapiens, UniProt P42684); assay: HotSpot kinase assay; type: biochemical; details: read-out: % Enzyme Activity (relative to DMSO controls)
T9 construct: purchased Reaction Biology Corporation

[12] = target: T10, MST1/STK4 (Homo sapiens, UniProt Q13043); assay: HotSpot kinase assay; type: biochemical; details: read-out: % Enzyme Activity (relative to DMSO controls)
T10 construct: purchased Reaction Biology Corporation

[13] = target: T11, IRAK4 (Homo sapiens, UniProt Q9NWZ3); assay: HotSpot kinase assay; type: biochemical; details: read-out: % Enzyme Activity (relative to DMSO controls)
T11 construct: purchased Reaction Biology Corporation

[14] = target: T12, MEK1 (Homo sapiens, UniProt Q02750); assay: HotSpot kinase assay; type: biochemical; details: read-out: % Enzyme Activity (relative to DMSO controls)
T12 construct: purchased Reaction Biology Corporation

[15] = system: VSV-S; type: cell-based, VSV pseudotyped with SARS-CoV-2 spike
[16] = target: T13, MEK2 (Homo sapiens, UniProt P36507); assay: HotSpot kinase assay; type: biochemical; details: read-out: % Enzyme Activity (relative to DMSO controls)
T13 construct: purchased Reaction Biology Corporation

[17] = target: T14, MLCK/MYLK (Homo sapiens, UniProt Q15746); assay: HotSpot kinase assay; type: biochemical; details: read-out: % Enzyme Activity (relative to DMSO controls)
T14 construct: purchased Reaction Biology Corporation

[18] = target: T15, PIM1 (Homo sapiens, UniProt P11309); assay: HotSpot kinase assay; type: biochemical; details: read-out: % Enzyme Activity (relative to DMSO controls)
T15 construct: purchased Reaction Biology Corporation

[19] = target: T16, DAPK1 (Homo sapiens, UniProt P53355); assay: HotSpot kinase assay; type: biochemical; details: read-out: % Enzyme Activity (relative to DMSO controls)
T16 construct: purchased Reaction Biology Corporation

[20] = Parallel artificial membrane permeability assay (PAMPA); type: in vitro ADME
[21] = target: T17, STK32B/YANK2 (Homo sapiens, UniProt Q9NY57); assay: HotSpot kinase assay; type: biochemical; details: read-out: % Enzyme Activity (relative to DMSO controls)
T17 construct: purchased Reaction Biology Corporation

[22] = target: T18, GCK/MAP4K2 (Homo sapiens, UniProt Q12851); assay: HotSpot kinase assay; type: biochemical; details: read-out: % Enzyme Activity (relative to DMSO controls)
T18 construct: purchased Reaction Biology Corporation

[23] = target: T19, p70S6Kb/RPS6KB2 (Homo sapiens, UniProt Q9UBS0); assay: HotSpot kinase assay; type: biochemical; details: read-out: % Enzyme Activity (relative to DMSO controls)
T19 construct: purchased Reaction Biology Corporation

[24] = target: T20, TESK1 (Homo sapiens, UniProt Q15569); assay: HotSpot kinase assay; type: biochemical; details: read-out: % Enzyme Activity (relative to DMSO controls)
T20 construct: purchased Reaction Biology Corporation

[25] = target: T21, TYRO3/SKY (Homo sapiens, UniProt Q06418); assay: HotSpot kinase assay; type: biochemical; details: read-out: % Enzyme Activity (relative to DMSO controls)
T21 construct: purchased Reaction Biology Corporation

[26] = target: T22, LIMK2 (Homo sapiens, UniProt P53671); assay: HotSpot kinase assay; type: biochemical; details: read-out: % Enzyme Activity (relative to DMSO controls)
T22 construct: purchased Reaction Biology Corporation

[27] = target: T23, CDC7/DBF4 (Homo sapiens, UniProt O00311); assay: HotSpot kinase assay; type: biochemical; details: read-out: % Enzyme Activity (relative to DMSO controls)
T23 construct: purchased Reaction Biology Corporation

[28] = target: T24, EPHA6 (Homo sapiens, UniProt Q9UF33); assay: HotSpot kinase assay; type: biochemical; details: read-out: % Enzyme Activity (relative to DMSO controls)
T24 construct: purchased Reaction Biology Corporation

[29] = system: HSV-2(G); assay: synchronized infection (entry) assay, CaSki; type: cell-based
Protocol: as §1

[30] = target: T25, BRAF (Homo sapiens, UniProt P15056); assay: HotSpot kinase assay; type: biochemical; details: read-out: % Enzyme Activity (relative to DMSO controls)
T25 construct: purchased Reaction Biology Corporation

[31] = target: T26, DAPK2 (Homo sapiens, UniProt Q9UIK4); assay: HotSpot kinase assay; type: biochemical; details: read-out: % Enzyme Activity (relative to DMSO controls)
T26 construct: purchased Reaction Biology Corporation

[32] = target: T27, PLK4/SAK (Homo sapiens, UniProt O00444); assay: HotSpot kinase assay; type: biochemical; details: read-out: % Enzyme Activity (relative to DMSO controls)
T27 construct: purchased Reaction Biology Corporation

[33] = target: T28, SSTK/TSSK6 (Homo sapiens, UniProt Q9BXA6); assay: HotSpot kinase assay; type: biochemical; details: read-out: % Enzyme Activity (relative to DMSO controls)
T28 construct: purchased Reaction Biology Corporation

[34] = target: T29, EGFR (Homo sapiens, UniProt P00533); assay: biochemical
T29 construct: purchased Reaction Biology Corporation

[35] = target: T30, CDK19/cyclin C (Homo sapiens, UniProt Q9BWU1); assay: HotSpot kinase assay; type: biochemical; details: read-out: % Enzyme Activity (relative to DMSO controls)
T30 construct: purchased Reaction Biology Corporation

[36] = Supplementary Table 1, read-out: IC50 (Molar concentration)
[37] = read-out: % Enzyme Activity (relative to DMSO controls), 10µM

T1 sequence (Q9Y243 whole entry): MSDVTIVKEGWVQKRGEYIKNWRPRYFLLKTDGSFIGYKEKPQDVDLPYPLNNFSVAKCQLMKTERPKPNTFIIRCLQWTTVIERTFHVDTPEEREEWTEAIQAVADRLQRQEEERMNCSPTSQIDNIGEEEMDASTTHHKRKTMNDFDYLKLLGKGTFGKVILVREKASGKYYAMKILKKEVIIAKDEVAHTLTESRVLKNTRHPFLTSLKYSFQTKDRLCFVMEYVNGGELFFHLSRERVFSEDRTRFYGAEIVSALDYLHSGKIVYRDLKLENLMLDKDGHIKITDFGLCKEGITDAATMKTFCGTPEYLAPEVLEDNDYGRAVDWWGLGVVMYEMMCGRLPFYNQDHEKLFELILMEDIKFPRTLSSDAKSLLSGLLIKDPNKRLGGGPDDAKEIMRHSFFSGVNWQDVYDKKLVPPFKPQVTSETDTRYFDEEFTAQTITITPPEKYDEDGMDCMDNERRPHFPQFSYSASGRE
T29 sequence (P00533 25-1210): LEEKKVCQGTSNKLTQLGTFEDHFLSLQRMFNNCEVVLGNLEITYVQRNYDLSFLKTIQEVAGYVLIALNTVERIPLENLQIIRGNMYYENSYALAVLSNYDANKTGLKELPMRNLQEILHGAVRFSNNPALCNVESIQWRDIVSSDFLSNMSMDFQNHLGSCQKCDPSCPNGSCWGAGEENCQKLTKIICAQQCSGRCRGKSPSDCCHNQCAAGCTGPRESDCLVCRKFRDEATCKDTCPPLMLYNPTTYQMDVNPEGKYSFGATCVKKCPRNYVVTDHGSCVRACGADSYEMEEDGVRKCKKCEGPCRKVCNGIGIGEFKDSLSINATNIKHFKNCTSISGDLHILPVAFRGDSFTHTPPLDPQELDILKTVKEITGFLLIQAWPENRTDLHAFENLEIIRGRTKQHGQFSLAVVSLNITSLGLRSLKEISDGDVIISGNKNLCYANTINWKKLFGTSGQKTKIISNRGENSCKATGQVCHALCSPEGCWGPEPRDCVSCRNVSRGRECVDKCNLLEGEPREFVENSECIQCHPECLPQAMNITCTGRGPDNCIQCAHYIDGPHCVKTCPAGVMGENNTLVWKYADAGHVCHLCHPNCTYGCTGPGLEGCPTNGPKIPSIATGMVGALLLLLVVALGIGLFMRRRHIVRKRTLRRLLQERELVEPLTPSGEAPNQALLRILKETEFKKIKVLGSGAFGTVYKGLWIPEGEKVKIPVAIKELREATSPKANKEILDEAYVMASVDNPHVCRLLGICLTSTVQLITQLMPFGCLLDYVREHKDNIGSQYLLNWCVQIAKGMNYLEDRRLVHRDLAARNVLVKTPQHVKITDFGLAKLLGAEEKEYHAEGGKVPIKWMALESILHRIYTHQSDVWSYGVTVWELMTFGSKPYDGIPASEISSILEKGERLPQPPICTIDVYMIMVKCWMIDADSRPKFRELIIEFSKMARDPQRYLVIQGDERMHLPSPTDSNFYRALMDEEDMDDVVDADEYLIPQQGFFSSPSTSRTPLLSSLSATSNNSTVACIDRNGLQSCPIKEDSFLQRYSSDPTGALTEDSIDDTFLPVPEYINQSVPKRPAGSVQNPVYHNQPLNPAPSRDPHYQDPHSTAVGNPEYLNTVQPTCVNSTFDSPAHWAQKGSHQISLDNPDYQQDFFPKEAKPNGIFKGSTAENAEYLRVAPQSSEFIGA
T8 sequence (O43293 whole entry): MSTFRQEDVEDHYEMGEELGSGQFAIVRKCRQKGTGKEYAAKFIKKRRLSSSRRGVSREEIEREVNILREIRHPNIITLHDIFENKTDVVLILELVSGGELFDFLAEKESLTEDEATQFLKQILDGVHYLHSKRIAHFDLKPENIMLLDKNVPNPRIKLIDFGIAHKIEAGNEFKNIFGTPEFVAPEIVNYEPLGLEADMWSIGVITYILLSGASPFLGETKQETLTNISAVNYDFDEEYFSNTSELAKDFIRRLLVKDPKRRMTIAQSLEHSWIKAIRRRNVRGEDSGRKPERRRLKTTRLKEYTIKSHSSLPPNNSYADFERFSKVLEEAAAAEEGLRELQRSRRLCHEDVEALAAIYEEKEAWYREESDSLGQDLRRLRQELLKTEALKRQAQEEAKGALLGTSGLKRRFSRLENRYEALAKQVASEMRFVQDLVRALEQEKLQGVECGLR
T27 sequence (O00444 whole entry): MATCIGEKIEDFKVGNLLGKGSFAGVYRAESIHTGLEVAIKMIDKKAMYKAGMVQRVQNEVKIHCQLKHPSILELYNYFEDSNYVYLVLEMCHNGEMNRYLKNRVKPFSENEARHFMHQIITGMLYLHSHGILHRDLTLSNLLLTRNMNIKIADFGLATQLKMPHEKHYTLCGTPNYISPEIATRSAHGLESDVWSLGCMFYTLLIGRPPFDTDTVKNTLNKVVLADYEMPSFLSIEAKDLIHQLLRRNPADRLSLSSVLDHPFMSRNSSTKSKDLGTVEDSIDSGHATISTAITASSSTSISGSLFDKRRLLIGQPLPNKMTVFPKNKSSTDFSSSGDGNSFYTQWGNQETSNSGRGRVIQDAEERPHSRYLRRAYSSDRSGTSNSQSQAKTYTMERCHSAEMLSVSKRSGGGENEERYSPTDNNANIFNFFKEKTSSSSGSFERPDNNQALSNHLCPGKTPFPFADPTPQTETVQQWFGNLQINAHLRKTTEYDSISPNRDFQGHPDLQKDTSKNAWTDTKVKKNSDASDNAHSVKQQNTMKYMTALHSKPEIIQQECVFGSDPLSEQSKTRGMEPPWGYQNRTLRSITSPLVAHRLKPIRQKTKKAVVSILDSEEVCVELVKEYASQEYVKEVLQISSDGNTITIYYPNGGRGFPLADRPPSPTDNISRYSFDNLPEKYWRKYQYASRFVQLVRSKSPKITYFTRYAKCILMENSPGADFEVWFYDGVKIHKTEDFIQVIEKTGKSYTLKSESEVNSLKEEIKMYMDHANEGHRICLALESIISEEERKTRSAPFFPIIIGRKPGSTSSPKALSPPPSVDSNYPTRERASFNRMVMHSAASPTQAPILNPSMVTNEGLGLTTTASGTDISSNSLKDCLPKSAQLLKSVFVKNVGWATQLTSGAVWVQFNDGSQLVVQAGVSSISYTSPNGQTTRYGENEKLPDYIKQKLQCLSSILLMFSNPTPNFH
T19 sequence (Q9UBS0 whole entry): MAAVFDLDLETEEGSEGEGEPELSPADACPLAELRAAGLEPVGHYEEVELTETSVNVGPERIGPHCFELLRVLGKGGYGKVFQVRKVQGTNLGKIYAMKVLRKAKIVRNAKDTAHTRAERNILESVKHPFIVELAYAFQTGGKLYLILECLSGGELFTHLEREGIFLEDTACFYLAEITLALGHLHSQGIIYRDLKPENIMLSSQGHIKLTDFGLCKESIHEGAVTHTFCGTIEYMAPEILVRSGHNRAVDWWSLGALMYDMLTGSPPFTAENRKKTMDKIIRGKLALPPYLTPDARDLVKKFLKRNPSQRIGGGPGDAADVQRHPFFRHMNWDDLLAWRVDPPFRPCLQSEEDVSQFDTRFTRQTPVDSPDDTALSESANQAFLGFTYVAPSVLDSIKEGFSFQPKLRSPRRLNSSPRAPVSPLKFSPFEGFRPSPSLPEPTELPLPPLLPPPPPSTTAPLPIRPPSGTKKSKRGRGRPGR
T3 sequence (P25098 whole entry): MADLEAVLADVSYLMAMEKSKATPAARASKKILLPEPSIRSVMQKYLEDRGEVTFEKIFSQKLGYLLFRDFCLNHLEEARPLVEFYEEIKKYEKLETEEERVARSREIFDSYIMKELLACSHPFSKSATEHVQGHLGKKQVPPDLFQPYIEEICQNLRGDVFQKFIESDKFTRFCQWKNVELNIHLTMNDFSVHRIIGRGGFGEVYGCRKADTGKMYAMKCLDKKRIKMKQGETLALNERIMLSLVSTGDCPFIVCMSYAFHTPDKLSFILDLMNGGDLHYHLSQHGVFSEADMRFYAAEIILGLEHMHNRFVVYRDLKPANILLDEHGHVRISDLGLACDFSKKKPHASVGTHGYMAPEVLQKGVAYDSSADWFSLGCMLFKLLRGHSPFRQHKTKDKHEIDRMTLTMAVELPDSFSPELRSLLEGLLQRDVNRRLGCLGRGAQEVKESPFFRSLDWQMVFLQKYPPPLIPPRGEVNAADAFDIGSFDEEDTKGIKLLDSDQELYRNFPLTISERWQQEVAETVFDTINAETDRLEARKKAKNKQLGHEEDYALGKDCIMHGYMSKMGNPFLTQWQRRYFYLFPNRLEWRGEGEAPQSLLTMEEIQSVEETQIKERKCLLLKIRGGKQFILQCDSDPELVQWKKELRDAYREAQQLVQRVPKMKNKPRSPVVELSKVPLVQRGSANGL
T25 sequence (P15056 whole entry): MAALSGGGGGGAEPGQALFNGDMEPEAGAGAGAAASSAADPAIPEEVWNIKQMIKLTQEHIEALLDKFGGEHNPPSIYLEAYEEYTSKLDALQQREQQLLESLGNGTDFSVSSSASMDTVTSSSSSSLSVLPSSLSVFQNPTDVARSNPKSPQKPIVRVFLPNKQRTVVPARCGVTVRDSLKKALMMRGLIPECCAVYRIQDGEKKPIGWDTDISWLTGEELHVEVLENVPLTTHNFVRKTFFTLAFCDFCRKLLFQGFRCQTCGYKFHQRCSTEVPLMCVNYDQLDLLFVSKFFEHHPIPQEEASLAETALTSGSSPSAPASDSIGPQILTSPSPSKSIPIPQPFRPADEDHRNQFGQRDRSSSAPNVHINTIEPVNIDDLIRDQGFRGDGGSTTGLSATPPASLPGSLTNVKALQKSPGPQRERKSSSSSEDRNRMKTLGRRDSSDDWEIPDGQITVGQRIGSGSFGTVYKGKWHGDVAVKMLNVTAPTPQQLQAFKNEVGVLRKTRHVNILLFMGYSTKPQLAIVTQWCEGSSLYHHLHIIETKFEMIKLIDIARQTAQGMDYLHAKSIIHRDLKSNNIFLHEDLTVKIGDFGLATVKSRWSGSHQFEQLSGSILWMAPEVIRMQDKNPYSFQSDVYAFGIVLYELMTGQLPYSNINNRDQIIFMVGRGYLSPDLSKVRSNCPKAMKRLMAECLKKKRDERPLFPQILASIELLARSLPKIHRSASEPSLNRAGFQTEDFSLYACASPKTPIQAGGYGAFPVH

For `CO[C@@H]1[C@H](N(C)C(=O)CCC(=O)NCc2cn(CCCS(=O)(=O)O)nn2)C[C@H]2O[C@]1(C)n1c3ccccc3c3c4c(c5c6ccccc6n2c5c31)C(=O)NC4` [CIMSS], the IC50 [1, 36] was 157 nM, the remaining activity at 10 µM [1, 37] was 11.4% and the inhibition at 10 µM ([1]; read-out: inhibition of Akt3) was > 75%. The remaining activity at 10 µM [2] was 95.9%, the remaining activity at 10 µM [3] was 29.5% and the “nuclear transport of VP-16” value [4] was “inhibited”. The remaining activity at 10 µM [5] was 21.2%, the remaining activity at 10 µM [6] was 3.64% and the remaining activity at 10 µM [7] was 99%. It also gave a Recover % [8] of 96%, a remaining activity at 10 µM [9] of 9.5% and a remaining activity at 10 µM [10] of 6.48%. The remaining activity at 10 µM [11] was 4.07%, the remaining activity at 10 µM [12] was 4.33% and the remaining activity at 10 µM [13] was 6.48%. For the same molecule, the remaining activity at 10 µM [14] was 76.7%, the VSV-S infection [15] was “inhibited” and the remaining activity at 10 µM [16] was 68%. The remaining activity at 10 µM [17] was 15.5%, the remaining activity at 10 µM [18] was 0.88% and the remaining activity at 10 µM [19] was 13.6%. For the same molecule, the Recover % ([20]; 100 µM) was 83%, the Papp at 5 h, 100 μM ([20]; PAMPA, PBS pH 7.4, 5 h) was 0.005 ×10⁻⁶ cm/s and the remaining activity at 10 µM [21] was 0.96%. For the same molecule, the remaining activity at 10 µM [22] was 4.74%, the remaining activity at 10 µM [23] was 3.38% and the remaining activity at 10 µM [24] was 83%. It also gave a remaining activity at 10 µM [25] of 23.6%, a remaining activity at 10 µM [26] of 67.4% and a remaining activity at 10 µM [27] of 3.98%. For the same molecule, the remaining activity at 10 µM [28] was 34.6%, the “plaques counted at 48 h” value ([29]; 0.5 h post-temperature shift (Fig 3b source data)) was 49 and 51 and the “plaques counted at 48 h” value ([29]; 1 h) was 48 and 46. For the same molecule, the “plaques counted at 48 h” value ([29]; 2 h) was 52 and 37, the remaining activity at 10 µM [30] was 132% and the remaining activity at 10 µM [31] was 11.3%. For the same molecule, the remaining activity at 10 µM [32] was 6.73%, the remaining activity at 10 µM [33] was 95.7% and the IC50 [34, 36] was 1610 nM. The remaining activity at 10 µM [34, 37] was 17.4% and the remaining activity at 10 µM [35] was 37.9%.
